Laboratory results published in ChEMBL document CHEMBL5465560, “Selectivity Literature for EUbOPEN Chemogenomic Library” (2024).
Values belong to the compound of their own block, whether it stands above or below them.

Columns and labels:
[1] = molecular target: Calcium/calmodulin-dependent protein kinase type II subunit gamma (Homo sapiens) (UniProt Q13555); details: at 10 µM
[2] = molecular target: T1, Mitogen-activated protein kinase kinase kinase 3 (Homo sapiens) (UniProt Q99759); assay: Selectivity interaction (Kinase panel (Invitrogen)) EUB0000639a MAP3K3; details: at 200 nM
T1 sequence (whole entry): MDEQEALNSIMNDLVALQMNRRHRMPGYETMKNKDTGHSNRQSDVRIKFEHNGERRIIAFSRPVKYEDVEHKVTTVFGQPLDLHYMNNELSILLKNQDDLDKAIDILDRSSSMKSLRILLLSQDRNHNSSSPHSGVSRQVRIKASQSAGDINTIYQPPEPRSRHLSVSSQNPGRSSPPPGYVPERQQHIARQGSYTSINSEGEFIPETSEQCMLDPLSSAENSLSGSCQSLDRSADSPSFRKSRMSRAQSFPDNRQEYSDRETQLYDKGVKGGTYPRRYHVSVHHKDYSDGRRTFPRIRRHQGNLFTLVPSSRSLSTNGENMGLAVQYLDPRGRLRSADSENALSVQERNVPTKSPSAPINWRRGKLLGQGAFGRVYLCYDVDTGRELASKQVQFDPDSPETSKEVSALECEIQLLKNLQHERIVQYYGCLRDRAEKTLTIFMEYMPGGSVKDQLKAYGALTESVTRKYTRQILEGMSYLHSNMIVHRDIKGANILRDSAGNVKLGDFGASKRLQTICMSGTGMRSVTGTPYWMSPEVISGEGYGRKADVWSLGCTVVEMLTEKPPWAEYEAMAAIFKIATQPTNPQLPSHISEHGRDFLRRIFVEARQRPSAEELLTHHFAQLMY

[3] = molecular target: T2, Mitogen-activated protein kinase kinase kinase 6 (Homo sapiens) (UniProt O95382); assay: Selectivity interaction (ActivX KiNativ screen (kinase selectivity in THP-1 cell lysates)) EUB0000639a MAP3K6; format: subcellular; details: lysate, at 0.2 µM
T2 sequence (whole entry): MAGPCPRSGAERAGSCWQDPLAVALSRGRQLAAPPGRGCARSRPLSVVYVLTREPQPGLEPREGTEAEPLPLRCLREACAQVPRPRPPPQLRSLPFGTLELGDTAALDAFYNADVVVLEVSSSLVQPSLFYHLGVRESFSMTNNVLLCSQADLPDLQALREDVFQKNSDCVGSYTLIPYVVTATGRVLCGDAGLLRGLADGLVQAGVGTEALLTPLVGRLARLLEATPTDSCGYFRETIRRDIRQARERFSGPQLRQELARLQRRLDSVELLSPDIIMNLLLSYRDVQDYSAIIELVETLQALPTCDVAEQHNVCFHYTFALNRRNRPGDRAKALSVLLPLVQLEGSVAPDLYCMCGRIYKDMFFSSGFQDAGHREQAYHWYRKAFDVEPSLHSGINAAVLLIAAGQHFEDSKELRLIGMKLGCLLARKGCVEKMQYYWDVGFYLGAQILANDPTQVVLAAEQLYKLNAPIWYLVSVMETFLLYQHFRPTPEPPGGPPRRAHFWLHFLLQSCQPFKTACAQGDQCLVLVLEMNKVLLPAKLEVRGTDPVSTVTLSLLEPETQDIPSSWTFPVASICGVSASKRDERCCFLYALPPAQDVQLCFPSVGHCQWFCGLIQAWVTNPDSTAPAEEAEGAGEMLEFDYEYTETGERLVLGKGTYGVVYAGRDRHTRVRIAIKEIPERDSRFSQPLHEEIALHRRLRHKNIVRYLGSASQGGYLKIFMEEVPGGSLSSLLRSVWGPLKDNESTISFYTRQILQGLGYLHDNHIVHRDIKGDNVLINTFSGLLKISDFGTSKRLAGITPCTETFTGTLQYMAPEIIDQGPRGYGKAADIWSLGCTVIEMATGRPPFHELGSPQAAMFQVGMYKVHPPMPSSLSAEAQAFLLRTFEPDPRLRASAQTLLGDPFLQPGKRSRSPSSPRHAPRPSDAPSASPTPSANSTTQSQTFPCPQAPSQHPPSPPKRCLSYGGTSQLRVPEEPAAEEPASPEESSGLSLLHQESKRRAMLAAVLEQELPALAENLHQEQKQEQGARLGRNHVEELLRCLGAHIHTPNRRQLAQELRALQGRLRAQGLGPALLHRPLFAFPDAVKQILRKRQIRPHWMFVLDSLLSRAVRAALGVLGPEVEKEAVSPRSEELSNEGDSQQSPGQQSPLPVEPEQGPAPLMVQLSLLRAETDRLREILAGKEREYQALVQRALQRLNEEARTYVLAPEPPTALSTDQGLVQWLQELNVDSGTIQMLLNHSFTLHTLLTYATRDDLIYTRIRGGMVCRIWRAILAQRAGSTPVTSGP

[4] = molecular target: Serine/threonine-protein kinase B-raf (Homo sapiens) (UniProt P15056); assay: Selectivity interaction (Kinase panel (Invitrogen)) EUB0000639a BRAF; details: at 200 nM
Chain of Serine/threonine-protein kinase B-raf (Homo sapiens) (P15056 whole entry): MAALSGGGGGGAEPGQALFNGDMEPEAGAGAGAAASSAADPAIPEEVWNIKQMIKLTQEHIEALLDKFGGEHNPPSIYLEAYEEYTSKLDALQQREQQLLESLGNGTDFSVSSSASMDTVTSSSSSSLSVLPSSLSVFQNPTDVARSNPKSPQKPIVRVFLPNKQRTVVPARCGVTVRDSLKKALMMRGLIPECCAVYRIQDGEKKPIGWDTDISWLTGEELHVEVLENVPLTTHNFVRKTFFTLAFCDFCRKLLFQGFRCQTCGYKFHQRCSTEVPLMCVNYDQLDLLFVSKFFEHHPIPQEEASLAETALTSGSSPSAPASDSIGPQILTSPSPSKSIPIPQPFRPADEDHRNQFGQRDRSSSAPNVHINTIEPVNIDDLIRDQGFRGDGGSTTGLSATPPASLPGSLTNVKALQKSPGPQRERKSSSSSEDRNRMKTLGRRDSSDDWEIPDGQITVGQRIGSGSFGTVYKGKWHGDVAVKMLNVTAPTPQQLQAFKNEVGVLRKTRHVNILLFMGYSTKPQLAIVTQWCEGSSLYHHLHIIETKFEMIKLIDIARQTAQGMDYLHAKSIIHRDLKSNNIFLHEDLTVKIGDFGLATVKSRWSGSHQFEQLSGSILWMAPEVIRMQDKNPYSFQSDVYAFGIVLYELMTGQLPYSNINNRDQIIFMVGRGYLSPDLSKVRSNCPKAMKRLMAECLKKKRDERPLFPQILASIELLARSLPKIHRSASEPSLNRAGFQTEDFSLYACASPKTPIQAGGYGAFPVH

[5] = molecular target: T3, Prostaglandin G/H synthase 2 (Homo sapiens) (UniProt P35354); assay: Selectivity interaction (Panel of non-epigenetic targets (kinases, GPCRs, ion channels, and transporters, Eurofins) ) EUB0000271b PTGS2; details: at 1 µM
T3 sequence (whole entry): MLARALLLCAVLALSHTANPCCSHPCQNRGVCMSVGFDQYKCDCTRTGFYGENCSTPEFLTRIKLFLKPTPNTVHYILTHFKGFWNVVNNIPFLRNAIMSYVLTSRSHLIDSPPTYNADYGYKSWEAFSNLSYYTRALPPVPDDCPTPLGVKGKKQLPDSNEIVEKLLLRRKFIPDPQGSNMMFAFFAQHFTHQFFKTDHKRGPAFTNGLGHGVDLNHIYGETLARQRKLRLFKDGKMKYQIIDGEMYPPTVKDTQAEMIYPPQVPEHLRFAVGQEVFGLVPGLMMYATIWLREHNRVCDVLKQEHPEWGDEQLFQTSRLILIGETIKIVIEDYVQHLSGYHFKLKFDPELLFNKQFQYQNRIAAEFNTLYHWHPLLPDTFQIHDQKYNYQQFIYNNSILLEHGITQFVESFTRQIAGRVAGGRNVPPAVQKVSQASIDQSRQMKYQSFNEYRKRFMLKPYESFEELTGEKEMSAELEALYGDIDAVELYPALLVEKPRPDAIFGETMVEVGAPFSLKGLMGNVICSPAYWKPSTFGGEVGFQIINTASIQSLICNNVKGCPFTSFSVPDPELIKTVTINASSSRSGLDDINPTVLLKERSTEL

Chain of Calcium/calmodulin-dependent protein kinase type II subunit gamma (Homo sapiens) (Q13555 whole entry): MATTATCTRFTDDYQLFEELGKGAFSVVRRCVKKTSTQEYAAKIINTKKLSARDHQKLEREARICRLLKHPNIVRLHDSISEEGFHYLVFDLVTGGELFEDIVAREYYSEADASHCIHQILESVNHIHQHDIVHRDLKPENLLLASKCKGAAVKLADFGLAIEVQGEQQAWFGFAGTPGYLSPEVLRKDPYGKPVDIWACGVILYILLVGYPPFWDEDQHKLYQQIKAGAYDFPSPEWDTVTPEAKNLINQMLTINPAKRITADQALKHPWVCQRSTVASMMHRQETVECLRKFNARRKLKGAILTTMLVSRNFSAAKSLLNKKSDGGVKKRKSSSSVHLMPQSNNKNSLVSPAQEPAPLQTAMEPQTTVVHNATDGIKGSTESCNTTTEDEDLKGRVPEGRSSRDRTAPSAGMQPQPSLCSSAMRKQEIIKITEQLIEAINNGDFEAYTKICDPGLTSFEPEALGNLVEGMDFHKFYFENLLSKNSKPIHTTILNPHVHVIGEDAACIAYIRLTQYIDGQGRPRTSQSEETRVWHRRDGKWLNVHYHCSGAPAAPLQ

% of control [1]: 100%
SMILES: CCN(CC)CCCCNc1ncc2cc(-c3cc(OC)cc(OC)c3)c(NC(=O)NC(C)(C)C)nc2n1

% of inhibition [2]: -5.54%
% of inhibition [3]: -13.5%
% of inhibition [4]: 2.21%
SMILES: CC[C@@H]1[C@H](F)C(=O)N[C@@H]1COc1nccc2cc(C(N)=O)c(OC)cc12 [ZIMLOVISERTIB]

SMILES: Cc1cc(C)cc([C@@H]2c3cc(C)ccc3NC(=O)CN2C(=O)c2ccc(Br)s2)c1
% of inhibition [5]: 8%
